The values that follow come from patent publication US20220064167A1, “IMIDAZO-PYRAZOLE CARBOXAMIDE DERIVATIVES AS ANTICANCER AGENTS AND THE SYNTHESIS THEREOF” (AVIDIN KFT., priority 2018, published 2022).

pIC50: −log10 of the molar value.

What all share (experiment): viability assay (Table 3)
Holding throughout (assay type): cell-based

Assay [1] has as its system HL-60 (acute promyelocytic leukemia). The settings on record: Homo sapiens, 20000 cells/well, 10 μM-0.2 nM. The protocol:
(§1) For viability assays cells were seeded in 96 well plates (MCF7 and 4T1: 6000, HL60: 120.000 cells/well) and incubated overnight. Compounds were dissolved in dimethyl sulfoxide (DMSO). Cells were treated with an increasing concentration of compounds having the general formula (I.) (156 nM-100 μM). Cell viability was determined after 72h incubation. Resazurin reagent (Sigma-Aldrich) was dissolved in PBS (pH 7.4) at 0.15 mg/ml concentration, sterile filtered (0.22 μm, Merck Millipore) and aliquoted at −20° C. Resazurin reagent (Sigma-Aldrich) was added at a final concentration of 25 μg/ml. After 2 hours incubation at 37° C. 5% CO2 fluorescence (530 nm excitation/580 nm emission) was recorded on a multimode microplate reader (Cytofluor4000, PerSeptive Biosytems). Viability was calculated with relation to untreated control cells and blank wells containing media without cells. IC50 values (50% inhibiting concentration) were calculated by GraphPad Prism® 5 (La Jolla, Calif., USA).
(§2) Cancer cell lines were purchased from the American Type Culture Collection (ATCC, Manassas, Va., USA). HT29 (human colorectal adenocarcinoma), HL-60 (acute promyelocytic leukemia), THP-1 (acute monocytic leukemia), MOLT-4 (acute T-lymphoblastic leukemia), MV-4-11 (biphenotypic B myelomonocytic leukemia) and K-562 (erythroleukemia) cells were maintained in Roswell Park Memorial Institute 1640 medium (RPMI-1640) with 10% FCS. Media were supplemented with 2 mM GlutaMAX, and 100 U/mL penicillin, 100 μg/mL streptomycin (Life Technologies, Carlsbad, Calif., USA). Cell cultures were maintained at 37° C. in a humidified incubator in an atmosphere of 5% CO2 (Sanyo, Japan).
(§3) Viability assays were performed as described in Example 102 with minor modification for cell density and tested concentration range. Applied cell densities: in case of human primary fibroblast 6000, for HT29 4000, for HL-60, MOLT-4, MV-4-11, THP-1, K-562 20000 cells/well. Applied compound concentration range: 10 μM-0.2 nM.

For assay [2], the system named is HT29 (human colorectal adenocarcinoma). The conditions noted are these: HT-29, 4000 cells/well, 10 μM-0.2 nM. The protocol:
as §1, §2, §3

The test system of another assay is K-562 (erythroleukemia). The settings on record: Homo sapiens, K562; 20000 cells/well, 10 μM-0.2 nM. The protocol:
as §1, §2, §3

Assay [3] relates to MOLT-4 (acute T-lymphoblastic leukemia). The conditions noted are these: Homo sapiens, 20000 cells/well, 10 μM-0.2 nM. The protocol: as §1, §2, §3
Assay [4] concerns MV-4-11 (biphenotypic B myelomonocytic leukemia). The settings on record: Homo sapiens, MV4-11; 20000 cells/well, 10 μM-0.2 nM. The protocol: as §1, §2, §3
For assay [5], the system named is THP-1 (acute monocytic leukemia). The conditions noted are these: Homo sapiens, 20000 cells/well, 10 μM-0.2 nM. The protocol: as §1, §2, §3
The subject of a further assay is human primary fibroblast. The settings on record: 6000 cells/well, 10 μM-0.2 nM. The protocol:
as §1
Human primary fibroblasts were obtained from the skin by enzymatic digestion according to a standard protocol. Fibroblasts were grown in low glucose DMEM/F12 medium containing 15% FCS, 1% antibiotic/antimycotic (PAA, Pasching, Austria) and 1% L-glutamine solution (PAA). Fibroblasts were cultured at 37° C. and 5% CO2 in humidified conditions. […]

Regarding `CC(C)(C)Nc1c(C(C)(C)C)[nH]c2c(C(=O)Nc3ccc(O)cc3)cnn12` [Example 90, 2-(Tert-butyl)-3-(tert-butylamino)-N-(4-hydroxyphenyl)-1H-imidazo[1,2-b]pyrazole-7-carboxamide], the pIC50 (commonly the negative decadic logarithm of the IC50, by convention in mol/L) was 7.78 in assay [1]; 8.00 in assay [2]; 7.27 in the assay on K-562 (erythroleukemia); 7.56 in assay [3]; 7.49 in assay [4]; 7.59 in assay [5]. The same molecule showed a pIC50 in the assay on human primary fibroblast of less than 5.52.
